Data published in patent publication US12590062B2, “PD-1/PD-L1 inhibitors” (Gilead Sciences, Inc., priority 2017, dated 2026).

Key:
PD-1/PD-L1 = PD-1/PD-L1 (Homo sapiens, UniProt Q9NZQ7); test: PD-1/PD-L1 biochemical protein-protein interaction assay (ALPHA); format: binding; details: 0.3 nM His tagged PD-L1, 2.5 nM biotinylated Fc-PD-1, 60 minutes at 25° C., read-out: IC50 PD-L1-PD-1 Alpha IC50-mono PD-L1-fcP-D1
Protocol: Biological Activity PD-1/PD-L1 & CTLA/CD80 Biochemical Protein-Protein Interaction Assay
Compounds were tested in biochemical protein-protein interaction assays to determine if they can specifically block the interaction between the extracellular domains of PD-1/PD-L1 or CTLA/CD80. Binding of the protein pairs is measured using a bead based Amplified Luminescent Proximity Homogeneous Assay (ALPHA) platform. Binding of each protein pair results in proximity of the donor and acceptor beads which leads to an increase in ALPHA signal. Disruption of the protein-protein interaction with a test compound results in a decrease in ALPHA signal. Assays are performed in 25 mM Hepes (pH 7.4), 150 mM NaCl, 3.4 mM EDTA, 0.005% Tween 20, and 0.01% BSA. Final protein concentration in the assays were 0.3 nM (His tagged PD-L1), 2.5 nM (biotinylated Fc-PD-1), 1 nM (His tagged CTLA4) and 1 nM (biotinylated CD80). After an assay reaction time of 60 minutes at 25° C., binding was measured with addition of 20 μg/mL ALPHA assay acceptor beads (anti-His coated) and […] ALPHA assay donor beads (streptavidin coated). IC50 values were calculated from the fit of the dose-response curves to a four-parameter equation. Representative data are shown below in Table 1.

PD-1/PD-L1 interaction = biological target: T1, PD-1/PD-L1 interaction (Homo sapiens, UniProt Q9NZQ7); test: PD-1/PD-L1 NFAT reporter co-culture assay; format: cell-based; details: Jurkat PD-1 NFAT-luciferase cells co-cultured with aAPC-PD-L1 CHO cells, 6 hrs at 37° C.; read-out: EC50 NFAT Luciferase
T1 construct: expressed in transfected cells; host or cells: CHO cells (aAPC-PD-L1) co-cultured with Jurkat cells overexpressing PD-1 and an NFAT-luciferase reporter
Procedure, shortened: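 Luminescence (ONE-Glo) after 6 h, 37 °C co-culture reports NFAT-luciferase in PD-1 Jurkat cells, which PD-1/PD-L1 engagement suppresses. Partner cells: CHO expressing anti-CD3 and PD-L1. EC50 from four-parameter dose-response fit.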

Chain of PD-1/PD-L1 (Q9NZQ7 19-238 limits assumed): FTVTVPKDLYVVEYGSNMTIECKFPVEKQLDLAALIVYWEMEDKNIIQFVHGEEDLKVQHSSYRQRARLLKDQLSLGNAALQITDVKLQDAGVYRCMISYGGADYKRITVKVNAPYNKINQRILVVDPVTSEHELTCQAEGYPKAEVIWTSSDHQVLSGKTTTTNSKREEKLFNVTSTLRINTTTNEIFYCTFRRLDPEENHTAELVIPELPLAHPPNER
T1 sequence (Q9NZQ7 19-290): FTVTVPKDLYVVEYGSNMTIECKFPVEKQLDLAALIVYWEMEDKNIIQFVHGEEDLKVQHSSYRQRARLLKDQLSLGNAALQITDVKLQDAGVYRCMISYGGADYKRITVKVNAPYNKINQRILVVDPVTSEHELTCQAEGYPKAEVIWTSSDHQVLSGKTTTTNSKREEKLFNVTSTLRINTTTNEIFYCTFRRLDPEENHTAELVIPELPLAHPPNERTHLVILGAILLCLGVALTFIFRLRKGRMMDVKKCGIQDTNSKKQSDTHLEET

SMILES | IC50 (PD-1/PD-L1) | EC50 (PD-1/PD-L1 interaction)
COc1nc(O[C@H]2CCc3c(-c4cccc5c4CC[C@@H]5Oc4nc(OC)c(CNC[C@H](O)CC(=O)O)cc4Br)cccc32)c(Br)cc1CNC[C@H](O)CC(=O)O [Example 3, (3R,3′R)-4,4′-((((((1S,1′S)-2,2′,3,3′-tetrahydro-1H,1′H-[4,4′-biindene]-1,1′-diyl)bis(oxy))bis(5-bromo-2-methoxypyridine-6,3-diyl))bis(methylene))bis(azanediyl))bis(3-hydroxybutanoic acid)] | 0.2 nM | 48 nM
CCNCc1cc(Cl)c(OCc2cccc(-c3cccc(COc4cc(OCc5cncc(C#N)c5)c(CNCC)cc4Cl)c3C)c2C)cc1OCc1cncc(C#N)c1 [Example 12, 5,5′-((((((2,2′-dimethyl-[1,1′-biphenyl]-3,3′-diyl)bis(methylene))bis(oxy))bis(4-chloro-6-((ethylamino)methyl)-3,1-phenylene))bis(oxy))bis(methylene))dinicotinonitrile] | 11.1 nM | 653 nM
COc1nc(OCc2cccc(-c3cccc(COc4ccc(CN[C@H](CO)C(=O)O)c(OC)n4)c3C)c2C)ccc1CN[C@H](CO)C(=O)O [Example 14] | 2.1 nM | 13100 nM
Cc1c(COc2cc(OCc3cncc(C#N)c3)c(CN3CCCCC3)cc2Cl)cccc1-c1cccc(COc2cc(OCc3cncc(C#N)c3)c(CN3CCCCC3)cc2Cl)c1C [Example 15, 5,5′-((((((2,2′-dimethyl-[1,1′-biphenyl]-3,3′-diyl)bis(methylene))bis(oxy))bis(4-chloro-6-(piperidin-1-ylmethyl)-3,1-phenylene))bis(oxy))bis(methylene))dinicotinonitrile] | 1250 nM | 5710 nM
Cc1c(COc2ccc(CNC[C@@H](O)CC(=O)O)cc2)cccc1-c1cccc(COc2cc(OCc3cncc(C#N)c3)c(CNC[C@@H](O)CC(=O)O)cc2Cl)c1C [Example 17, (S)-4-((4-((3′-((4-((((S)-3-carboxy-2-hydroxypropyl)amino)methyl)-2-chloro-5-((5-cyanopyridin-3-yl)methoxy)phenoxy)methyl)-2,2′-dimethyl-[1,1′-biphenyl]-3-yl)methoxy)benzyl)amino)-3-hydroxybutanoic acid] | 0.3 nM | 1610 nM
COc1nc(OCc2cccc(-c3cccc(COc4ccc(CNCCNC(C)=O)c(OC)n4)c3C)c2C)ccc1CNCCNC(C)=O [Example 18, N,N′-(((((((2,2′-dimethyl-[1,1′-biphenyl]-3,3′-diyl)bis(methylene))bis(oxy))bis(2-methoxypyridine-6,3-diyl))bis(methylene))bis(azanediyl))bis(ethane-2,1-diyl))diacetamide] | 16.2 nM | ≥ 50000 nM
COc1nc(OCc2cccc(-c3cccc(COc4ccc(CNC[C@@H](O)CC(=O)O)c(OC)n4)c3C)c2C)ccc1CNC[C@@H](O)CC(=O)O [Example 19, (3S,3′S)-4,4′-((((((2,2′-dimethyl-[1,1′-biphenyl]-3,3′-diyl)bis(methylene))bis(oxy))bis(2-methoxypyridine-6,3-diyl))bis(methylene))bis(azanediyl))bis(3-hydroxybutanoic acid)] | 1.1 nM | 5140 nM
COc1nc(OCc2cccc(-c3cccc(COc4ccc(CNCCO)c(OC)n4)c3C)c2C)ccc1CNCCO [Example 21, 2,2′-((((((2,2′-dimethyl-[1,1′-biphenyl]-3,3′-diyl)bis(methylene))bis(oxy))bis(2-methoxypyridine-6,3-diyl))bis(methylene))bis(azanediyl))bis(ethan-1-ol)] | 17 nM | 1370 nM
Cc1c(COc2cc(OCc3cccnc3)c(CNCCO)cc2Cl)cccc1-c1cccc(COc2cc(OCc3cccnc3)c(CNCCO)cc2Cl)c1C [Example 22, 2,2′-((((((2,2′-dimethyl-[1,1′-biphenyl]-3,3′-diyl)bis(methylene))bis(oxy))bis(5-chloro-2-(pyridin-3-ylmethoxy)-4,1-phenylene))bis(methylene))bis(azanediyl))bis(ethan-1-ol)] | 34.9 nM | 2070 nM
COc1nc(OCc2cccc(-c3cccc(COc4ccc(CNC[C@H](C)O)c(OC)n4)c3C)c2C)ccc1CNC[C@H](C)O [Example 23, (2S,2′S)-1,1′-((((((2,2′-dimethyl-[1,1′-biphenyl]-3,3′-diyl)bis(methylene))bis(oxy))bis(2-methoxypyridine-6,3-diyl))bis(methylene))bis(azanediyl))bis(propan-2-ol)] | 40.6 nM | ≥ 50000 nM
Cc1c(OC(F)(F)c2ccc(CNCC(=O)O)cc2)cccc1-c1cccc(OC(F)(F)c2ccc(CNCC(=O)O)cc2)c1C [Example 278, 2,2′-((((((2,2′-dimethyl-[1,1′-biphenyl]-3,3′-diyl)bis(oxy))bis(difluoromethylene))bis(4,1-phenylene))bis(methylene))bis(azanediyl))diacetic acid] | – | ≥ 50000 nM
Cc1c(COc2cc(OCc3cccc(C#N)c3)c(CNCCO)cc2Cl)cccc1-c1cccc(COc2cc(OCc3cccc(C#N)c3)c(CNCCO)cc2Cl)c1C [Example 284, 3,3′-((((((2,2′-dimethyl-[1,1′-biphenyl]-3,3′-diyl)bis(methylene))bis(oxy))bis(4-chloro-6-(((2-hydroxyethyl)amino)methyl)-3,1-phenylene))bis(oxy))bis(methylene))dibenzonitrile] | – | 1460 nM
COc1nc(OCc2cccc(-c3cccc(COc4ccc(CNC[C@@H](O)CC(=O)O)c(OC)n4)c3F)c2C)ccc1CNC[C@@H](O)CC(=O)O [Example 285, (3S,3′S)-4,4′-((((((2-fluoro-2′-methyl-[1,1′-biphenyl]-3,3′-diyl)bis(methylene))bis(oxy))bis(2-methoxypyridine-6,3-diyl))bis(methylene))bis(azanediyl))bis(3-hydroxybutanoic acid)] | – | 9690 nM
Cc1c(COc2cc(OCc3cncc(C#N)c3)c(CNC[C@@H](O)CC(=O)O)cc2Cl)cccc1-c1cccc(-c2nc3ccc(CNC[C@@H](O)CC(=O)O)cc3s2)c1C [Example 286, (S)-4-(((2-(3′-((4-((((S)-3-carboxy-2-hydroxypropyl)amino)methyl)-2-chloro-5-((5-cyanopyridin-3-yl)methoxy)phenoxy)methyl)-2,2′-dimethyl-[1,1′-biphenyl]-3-yl)benzo[d]thiazol-6-yl)methyl)amino)-3-hydroxybutanoic acid] | – | 232 nM
Cc1c(COc2cc(OCc3cncc(C#N)c3)c(CNCCO)cc2Cl)cccc1-c1cccc(-c2ccc(CNCCCC(=O)O)cc2)c1C [Example 334, 4-(((3″-((2-chloro-5-((5-cyanopyridin-3-yl)methoxy)-4-(((2-hydroxyethyl)amino)methyl)phenoxy)methyl)-2′,2″-dimethyl-[1,1′:3′,1″-terphenyl]-4-yl)methyl)amino)butanoic acid] | 0.143 nM | –
Cc1c(COc2nc(OCc3cc(C#N)cc(C#N)c3)c(CNC[C@@H](O)CC(=O)O)cc2Cl)cccc1-c1cccc(-c2ccc(OCCNCCO)cc2)c1C [Example 472] | – | 51 nM
N#Cc1cncc(COc2nc(OCc3cccc(-c4cccc(COc5nc(OCc6cncc(C#N)c6)c(CNC[C@@H](O)CC(=O)O)cc5Br)c4Cl)c3Cl)c(Br)cc2CNC[C@@H](O)CC(=O)O)c1 [Example 563] | 0.317 nM | –
